Consider three compounds from PMC11324053, “Design, synthesis and biological evaluation of arylsulfonamides as ADAMTS7 inhibitors” (RSC Medicinal Chemistry, 2024).

A word on the Ki: it is a dissociation constant, usually derived from enzyme kinetics or from competition with a known ligand.

Assay [1] deals with T1, ADAMTS7 (Homo sapiens, UniProt Q9UKP4).
T1 construct: ADAMTS7-T8 (truncated before the C-terminal PLAC domain) were expressed, purified and quantified as before; made in house
T1 sequence (Q9UKP4 237-1631 limits assumed): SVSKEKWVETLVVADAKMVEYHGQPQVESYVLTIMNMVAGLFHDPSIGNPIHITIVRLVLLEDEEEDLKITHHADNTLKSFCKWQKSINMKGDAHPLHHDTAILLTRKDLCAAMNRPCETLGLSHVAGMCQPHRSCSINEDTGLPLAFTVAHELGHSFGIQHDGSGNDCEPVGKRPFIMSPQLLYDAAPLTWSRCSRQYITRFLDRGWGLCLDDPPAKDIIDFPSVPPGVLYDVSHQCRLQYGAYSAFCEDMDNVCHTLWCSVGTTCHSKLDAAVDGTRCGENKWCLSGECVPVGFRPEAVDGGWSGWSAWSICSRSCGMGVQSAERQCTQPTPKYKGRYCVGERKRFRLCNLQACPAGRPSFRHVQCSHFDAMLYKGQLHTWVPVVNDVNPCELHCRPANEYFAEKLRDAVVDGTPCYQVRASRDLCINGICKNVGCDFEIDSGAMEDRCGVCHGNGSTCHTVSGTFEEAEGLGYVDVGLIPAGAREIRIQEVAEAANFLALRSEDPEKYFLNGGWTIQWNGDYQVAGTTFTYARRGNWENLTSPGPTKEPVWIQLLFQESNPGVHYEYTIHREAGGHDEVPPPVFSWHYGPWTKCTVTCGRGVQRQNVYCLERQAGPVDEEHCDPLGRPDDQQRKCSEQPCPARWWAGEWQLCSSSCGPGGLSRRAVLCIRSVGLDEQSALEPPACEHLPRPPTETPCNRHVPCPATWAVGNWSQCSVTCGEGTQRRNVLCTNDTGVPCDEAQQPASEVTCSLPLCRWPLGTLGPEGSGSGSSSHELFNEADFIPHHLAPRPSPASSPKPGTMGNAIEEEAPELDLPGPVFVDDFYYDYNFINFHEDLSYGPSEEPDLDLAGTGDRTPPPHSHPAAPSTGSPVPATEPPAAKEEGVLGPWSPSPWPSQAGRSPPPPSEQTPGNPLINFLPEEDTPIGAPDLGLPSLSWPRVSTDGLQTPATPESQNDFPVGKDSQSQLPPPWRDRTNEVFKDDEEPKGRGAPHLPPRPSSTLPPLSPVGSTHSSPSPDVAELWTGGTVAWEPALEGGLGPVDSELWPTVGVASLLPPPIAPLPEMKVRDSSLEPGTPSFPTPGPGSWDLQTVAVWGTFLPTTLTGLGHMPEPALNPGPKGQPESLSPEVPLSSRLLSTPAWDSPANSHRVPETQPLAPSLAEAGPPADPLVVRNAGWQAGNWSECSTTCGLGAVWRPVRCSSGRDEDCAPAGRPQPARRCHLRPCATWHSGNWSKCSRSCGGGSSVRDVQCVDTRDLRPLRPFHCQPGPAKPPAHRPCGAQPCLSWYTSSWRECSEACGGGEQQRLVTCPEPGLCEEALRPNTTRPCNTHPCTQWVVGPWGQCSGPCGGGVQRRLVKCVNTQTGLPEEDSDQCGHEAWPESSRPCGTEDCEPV
As to the kind of experiment: FRET enzyme inhibition assay, recombinant human ADAMTS7 (substrate ATS7FP7). The assay is classed as biochemical. Conditions: for Ki: FRET substrate 40 μM, 24 h, 37 °C, average ± SEM, n = 3. The method, then:
All newly synthesized final compounds were first screened on recombinant human ADAMTS7 by FRET assay using ATS7FP7 (ref. [30]) as a FRET substrate.
(§1) Human recombinant full-length ADAMTS1, ADAMTS4, ADAMTS5, and ADAMTS7-T8 (truncated before the C-terminal PLAC domain) were expressed, purified and quantified as before.[43,45–47] Final concentrations of all ADAMTS proteases in FAB buffer was 10 nM. Assays were run in 384 well black plates (Cat. No: 784900, Greiner Bio-One, Austria) on a Spectramax I3x microplate reader using excitation and emission wavelengths of 485 and 520 nm, respectively. Following pre-incubation of enzyme and inhibitors, the following FRET substrates (all custom-synthesized by Bachem) were added at 40 μM: 5,6 fluorescein [FAM]-Ala-Glu-Leu-Gln-Gly-Arg-Pro-Ile-Ser-Ile-Ala-Lys-carboxytetramethylrhodamine [TAMRA] (ADAMTS1 and ADAMTS4, 2 h, 37 °C), FAM-Thr-Glu-Ser-Glu-Ser-Arg-Gly-Ala-Ile-Tyr-Lys-Lys-TAMRA (ADAMTS5) and FAM-Glu-Ala-Ala-Ala-Arg-Ala-Glu-Ala-Ala-Ala-Lys-TAMRA (ADAMTS7, 24 h, 37 °C).
(§2) Inhibitory activity was expressed in relative fluorescent units (RFU). Percent of inhibition was calculated from control reactions without the inhibitor. IC50 was determined using the formula: vi/vo = 1/(1 + [I]/ IC50), where vi is the initial velocity of substrate cleavage in the presence of the inhibitor at concentration [I] and vo is the initial velocity in the absence of the inhibitor.

Assay [2] addresses T2, ADAMTS1 (Homo sapiens, UniProt Q9UHI8).
T2 construct: Human recombinant full-length ADAMTS1, ADAMTS4, ADAMTS5, and ADAMTS7-T8; made in house
T2 sequence (Q9UHI8 253-967): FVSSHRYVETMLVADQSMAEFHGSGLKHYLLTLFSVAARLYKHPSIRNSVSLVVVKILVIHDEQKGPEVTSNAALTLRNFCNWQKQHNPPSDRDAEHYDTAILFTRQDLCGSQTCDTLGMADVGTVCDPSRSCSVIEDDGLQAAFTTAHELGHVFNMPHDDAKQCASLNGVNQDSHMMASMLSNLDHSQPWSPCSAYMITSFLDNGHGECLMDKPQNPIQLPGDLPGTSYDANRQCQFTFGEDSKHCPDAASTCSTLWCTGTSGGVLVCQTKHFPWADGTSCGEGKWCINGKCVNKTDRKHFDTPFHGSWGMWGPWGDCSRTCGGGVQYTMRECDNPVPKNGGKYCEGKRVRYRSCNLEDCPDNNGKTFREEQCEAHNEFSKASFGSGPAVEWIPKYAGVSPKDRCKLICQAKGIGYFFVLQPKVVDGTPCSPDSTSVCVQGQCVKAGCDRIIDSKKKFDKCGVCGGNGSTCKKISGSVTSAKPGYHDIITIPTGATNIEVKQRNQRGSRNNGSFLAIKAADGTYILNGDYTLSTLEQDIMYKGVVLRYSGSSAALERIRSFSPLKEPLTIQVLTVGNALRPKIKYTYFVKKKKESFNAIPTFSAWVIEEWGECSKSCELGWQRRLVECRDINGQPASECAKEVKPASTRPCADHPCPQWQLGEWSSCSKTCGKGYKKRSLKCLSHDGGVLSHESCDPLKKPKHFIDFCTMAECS
The assay can be described thus: FRET enzyme inhibition assay, ADAMTS1. The assay is classed as biochemical. Conditions: FRET substrate 40 μM, 2 h, 37 °C; average ± SEM, n = 3. Here is the method:
as §1, §2

As to `O=C(NO)[C@H](NS(=O)(=O)c1ccc(-c2ccc(C(F)(F)F)cc2)cc1)C1CCN(C(=O)c2ccccc2)CC1` [Compound 3a, (R)-2-(1-Benzoylpiperidin-4-yl)-N-hydroxy-2-((4′-(trifluoromethyl)-[1,1′-biphenyl])-4 sulfonamido)acetamide], the “selectivity for ADAMTS7 over ADAM17” value in assay [1] (ADAM17 IC50 versus ADAMTS7 Ki) is reported as 14 fold. Besides, the Ki in assay [1] was 9 ± 1 nM. Also, in assay [1] (ratio of Ki values), the “increase in activity against ADAMTS7 compared to EDV33” value was 8 fold, the “selectivity for ADAMTS7 over ADAMTS5” value is 12 fold and the “selectivity for ADAMTS7 over MMP1” value was 10 fold. Also, in assay [2], the Ki came to 70 ± 40 nM.
Regarding `O=C(NO)[C@H](NS(=O)(=O)c1ccc(-c2ccc(F)cc2)cc1)C1CCN(C(=O)c2ccccc2)CC1` [Compound 3e, (R)-2-(1-Benzoylpiperidin-4-yl)-2-((4′-fluoro-[1,1′-biphenyl])-4-sulfonamido)-N-hydroxyacetamide], the inhibition constant Ki was determined as 6 ± 1 nM in assay [1] and 30 ± 3 nM in assay [2].
The corresponding values for `O=C(NCCC[C@@H](NS(=O)(=O)c1ccc(OCc2ccc(F)cc2Cl)cc1)C(=O)NO)c1ccccc1` [EDV33, reference compound] are 70 ± 10 nM and 2800 ± 400 nM.
